Test results published in PMC12377202, “Design, synthesis, and cytotoxic evaluation of quinazoline-based derivatives as VEGER-2 inhibitors: comparative study against EGFR kinase activity, induction of apoptosis, and molecular docking study” (RSC Advances, 2025).
Several values for one entry are separate records, joined by “and”; a condition that tells them apart may be missing. Identical values can stand only once.

What was measured:
MCF-7 = test: MTT anti-proliferative assay, MCF-7; assay type: cell-based, human; conditions: Homo sapiens, MCF7
HepG-2 = test: MTT anti-proliferative assay, HepG-2; assay type: cell-based, human; conditions: Homo sapiens, HepG2
K-562 = test: MTT anti-proliferative assay, K-562; assay type: cell-based, human; conditions: Homo sapiens, K562
HepG-2 cells = test: Cell cycle analysis (PI staining, flow cytometry); assay type: cell-based, human
Description: In order to cause cytotoxicity, anticancer medicines must stop cell division at specific checkpoints, which are discrete stages of the cell cycle.
Propidium iodide (PI) staining and flow cytometry analysis[74,75] were used to analyze the cell cycle for derivatives 8a and 9a, as illustrated in the SI.
(§1) through Flow cytometric analysis.
(§2) Pellets were collected again and incubated with
(§3) Total RNA from vehicle-treated
(§4) (Thermo Scientific, USA).
(§5) All experiments were performed in […]

caspase-3 = test: Caspase-3 expression level in HepG-2 cells; assay type: cell-based, human; conditions: for Caspase-3 ± SE: HepG-2, at IC50 concentrations, control 0.460
Description: (§6) All synthesized compounds were tested at their cytotoxic concentrations in HepG-2 cells for analysis of gene expression levels of apoptotic markers caspase-3, caspase-9, TNF-α, and IL-6 proteins, and only two active compounds were tested for BAX and Bcl-2 proteins.
as §1, §2, §3, §4, §5

caspase-9 = test: Caspase-9 expression level in HepG-2 cells; assay type: cell-based, human; conditions: for Caspase-9 ± SE: HepG-2, at IC50 concentrations, control 11.01
Description: as §6, §1, §2, §3, §4, §5

TNF-alpha = TNF-alpha level in HepG-2 cells; assay type: cell-based, human; conditions: control 43.48
Description: as §6, §1, §2, §3, §4, §5

IL-6R = IL-6R level in HepG-2 cells; assay type: cell-based, human
Description: as §6, §1, §2, §3, §4, §5

BAX = BAX gene expression in HepG-2 cells; assay type: cell-based, human
Description: as §6, §1, §2, §3, §4, §5

Bcl-2 = Bcl-2 gene expression in HepG-2 cells; assay type: cell-based, human
Description: as §6, §1, §2, §3, §4, §5

BAX/Bcl-2 = BAX/Bcl-2 ratio in HepG-2 cells; assay type: cell-based, human; conditions: control 0.1260
Description: as §6, §1, §2, §3, §4, §5

EGFR = EGFR (Homo sapiens, UniProt P00533); test: EGFR kinase inhibition assay (ELISA kit)
VEGFR-2 = VEGFR-2 (Homo sapiens, UniProt P35968); test: In vitro VEGFR-2 inhibitory assay (ELISA kit); conditions: VEGFR-2 kinase
VEGFR-2, sequence (P35968 20-1356): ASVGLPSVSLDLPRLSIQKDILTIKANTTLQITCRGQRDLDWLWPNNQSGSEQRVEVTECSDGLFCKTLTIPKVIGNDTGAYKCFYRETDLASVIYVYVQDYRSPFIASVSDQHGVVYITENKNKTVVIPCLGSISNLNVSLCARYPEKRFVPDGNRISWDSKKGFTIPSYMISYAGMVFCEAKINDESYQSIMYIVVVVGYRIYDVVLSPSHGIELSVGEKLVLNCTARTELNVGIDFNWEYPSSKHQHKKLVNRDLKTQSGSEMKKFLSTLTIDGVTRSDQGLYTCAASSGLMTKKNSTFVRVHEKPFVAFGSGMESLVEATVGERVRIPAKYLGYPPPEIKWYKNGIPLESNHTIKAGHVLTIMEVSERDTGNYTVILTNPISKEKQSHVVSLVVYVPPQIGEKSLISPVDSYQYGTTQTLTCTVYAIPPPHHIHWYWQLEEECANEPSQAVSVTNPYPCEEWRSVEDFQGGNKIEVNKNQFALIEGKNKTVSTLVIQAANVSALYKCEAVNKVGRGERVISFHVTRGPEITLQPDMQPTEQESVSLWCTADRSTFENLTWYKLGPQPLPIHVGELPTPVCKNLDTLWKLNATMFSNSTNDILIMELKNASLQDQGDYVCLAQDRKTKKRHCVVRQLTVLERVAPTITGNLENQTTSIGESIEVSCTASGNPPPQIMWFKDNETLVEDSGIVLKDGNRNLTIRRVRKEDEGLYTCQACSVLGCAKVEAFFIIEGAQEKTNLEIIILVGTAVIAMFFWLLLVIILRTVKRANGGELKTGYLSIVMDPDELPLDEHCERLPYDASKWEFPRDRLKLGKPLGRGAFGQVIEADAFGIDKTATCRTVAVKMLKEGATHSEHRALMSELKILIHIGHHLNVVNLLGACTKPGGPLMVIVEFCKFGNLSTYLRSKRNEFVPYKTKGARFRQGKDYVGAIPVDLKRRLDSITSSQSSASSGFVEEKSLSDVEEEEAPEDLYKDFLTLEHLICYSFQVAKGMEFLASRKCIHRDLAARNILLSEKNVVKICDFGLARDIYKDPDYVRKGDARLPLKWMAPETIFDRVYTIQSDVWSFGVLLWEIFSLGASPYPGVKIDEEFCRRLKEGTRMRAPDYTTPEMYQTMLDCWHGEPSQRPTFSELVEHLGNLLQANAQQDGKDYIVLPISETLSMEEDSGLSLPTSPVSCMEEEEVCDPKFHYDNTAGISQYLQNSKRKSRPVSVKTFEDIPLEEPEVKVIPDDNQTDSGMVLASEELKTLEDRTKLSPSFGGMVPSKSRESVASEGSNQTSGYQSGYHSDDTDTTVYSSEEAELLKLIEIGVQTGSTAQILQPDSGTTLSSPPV

EGFR, sequence (P00533 25-1210): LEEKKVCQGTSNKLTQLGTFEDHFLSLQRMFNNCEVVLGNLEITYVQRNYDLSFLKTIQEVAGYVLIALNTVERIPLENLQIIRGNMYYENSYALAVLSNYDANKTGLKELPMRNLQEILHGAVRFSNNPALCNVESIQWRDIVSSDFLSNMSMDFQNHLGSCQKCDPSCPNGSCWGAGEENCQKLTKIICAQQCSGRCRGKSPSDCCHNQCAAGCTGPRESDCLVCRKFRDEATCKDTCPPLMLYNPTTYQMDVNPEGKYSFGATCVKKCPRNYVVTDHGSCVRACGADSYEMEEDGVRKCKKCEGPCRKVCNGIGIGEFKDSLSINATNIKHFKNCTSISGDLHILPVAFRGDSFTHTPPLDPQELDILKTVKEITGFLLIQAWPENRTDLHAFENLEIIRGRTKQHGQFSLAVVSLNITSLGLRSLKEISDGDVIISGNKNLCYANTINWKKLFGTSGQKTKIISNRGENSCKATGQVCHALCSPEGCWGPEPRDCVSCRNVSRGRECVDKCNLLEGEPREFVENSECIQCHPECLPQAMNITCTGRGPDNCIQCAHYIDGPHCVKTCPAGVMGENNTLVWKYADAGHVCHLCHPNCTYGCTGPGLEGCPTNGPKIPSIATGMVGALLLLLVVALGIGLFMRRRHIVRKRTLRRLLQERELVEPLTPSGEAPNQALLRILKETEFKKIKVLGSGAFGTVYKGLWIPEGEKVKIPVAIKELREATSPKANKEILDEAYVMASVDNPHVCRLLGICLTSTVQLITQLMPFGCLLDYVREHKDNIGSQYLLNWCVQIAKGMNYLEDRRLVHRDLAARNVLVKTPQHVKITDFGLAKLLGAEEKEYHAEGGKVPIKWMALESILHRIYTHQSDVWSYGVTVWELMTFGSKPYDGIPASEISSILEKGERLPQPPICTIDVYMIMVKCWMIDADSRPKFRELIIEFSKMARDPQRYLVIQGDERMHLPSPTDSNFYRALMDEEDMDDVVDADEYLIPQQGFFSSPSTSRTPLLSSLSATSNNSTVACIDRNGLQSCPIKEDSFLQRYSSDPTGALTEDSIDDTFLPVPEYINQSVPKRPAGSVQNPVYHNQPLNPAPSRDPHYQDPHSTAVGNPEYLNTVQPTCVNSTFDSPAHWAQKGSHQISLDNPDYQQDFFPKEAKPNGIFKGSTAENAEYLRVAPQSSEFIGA

In the case of `O=C(Cn1cnc2cc(Cl)ccc2c1=O)Nc1ccccc1` [8a, 2-(7-Chloro-4-oxoquinazolin-3(4H)-yl)-N-phenylacetamide], the viability at 0.195 µmol (MCF-7; MCF-7, 0.195 umol) is reported as 93.5%, the cytotoxicity at 0.195 µmol (MCF-7; MCF-7, 0.195 umol, read-out: Toxicity %) is reported as 6.51% and the viability at 0.391 µmol (MCF-7; MCF-7, 0.391 umol) is reported as 67%. The cytotoxicity at 0.391 µmol (MCF-7; MCF-7, 0.391 umol, read-out: Toxicity %) was 33%, the viability at 0.781 µmol (MCF-7; MCF-7, 0.781 umol) was 45.2% and the cytotoxicity at 0.781 µmol (MCF-7; MCF-7, 0.781 umol, read-out: Toxicity %) was 54.8%. The viability at 1.563 µmol (MCF-7; MCF-7, 1.563 umol) was 28.5%, the cytotoxicity at 1.563 µmol (MCF-7; MCF-7, 1.563 umol, read-out: Toxicity %) was 71.5% and the viability at 3.125 µmol (MCF-7; MCF-7, 3.125 umol) was 17.8%. For the same compound, the cytotoxicity at 3.125 µmol (MCF-7; MCF-7, 3.125 umol, read-out: Toxicity %) was 82.2%, the viability at 6.25 µmol (MCF-7; MCF-7, 6.25 umol) was 11.4% and the cytotoxicity at 6.25 µmol (MCF-7; MCF-7, 6.25 umol, read-out: Toxicity %) was 88.6%. For the same compound, the viability at 12.5 µmol (MCF-7; MCF-7, 12.5 umol) was 8.31%, the cytotoxicity at 12.5 µmol (MCF-7; MCF-7, 12.5 umol, read-out: Toxicity %) was 91.7% and the viability at 25 µmol (MCF-7; MCF-7, 25 umol) was 7.26%. For the same compound, the cytotoxicity at 25 µmol (MCF-7; MCF-7, 25 umol, read-out: Toxicity %) was 92.7%, the IC50 (MCF-7; MTT, MCF-7, read-out: Cytotoxicity against cancer cells IC50 MCF-7) was 0.6955 ± 0.0051 µM and the viability at 0.195 µg/mL (HepG-2; HepG-2, 0.195 ug/ml) was 45.9%. It also gave a cytotoxicity at 0.195 µg/mL (HepG-2; HepG-2, 0.195 ug/ml, read-out: Toxicity %) of 54.1%, a viability at 0.391 µg/mL (HepG-2; HepG-2, 0.391 ug/ml) of 26.4% and a cytotoxicity at 0.391 µg/mL (HepG-2; HepG-2, 0.391 ug/ml, read-out: Toxicity %) of 73.6%. It also gave a viability at 0.781 µg/mL (HepG-2; HepG-2, 0.781 ug/ml) of 16.7%, a cytotoxicity at 0.781 µg/mL (HepG-2; HepG-2, 0.781 ug/ml, read-out: Toxicity %) of 83.3% and a viability at 1.563 µg/mL (HepG-2; HepG-2, 1.563 ug/ml) of 11.8%. It also gave a cytotoxicity at 1.563 µg/mL (HepG-2; HepG-2, 1.563 ug/ml, read-out: Toxicity %) of 88.2%, a viability at 3.125 µg/mL (HepG-2; HepG-2, 3.125 ug/ml) of 8.68% and a cytotoxicity at 3.125 µg/mL (HepG-2; HepG-2, 3.125 ug/ml, read-out: Toxicity %) of 91.3%. For the same compound, the viability at 6.25 µg/mL (HepG-2; HepG-2, 6.25 ug/ml) was 7.88%, the cytotoxicity at 6.25 µg/mL (HepG-2; HepG-2, 6.25 ug/ml, read-out: Toxicity %) was 92.1% and the viability at 12.5 µg/mL (HepG-2; HepG-2, 12.5 ug/ml) was 6.74%. The cytotoxicity at 12.5 µg/mL (HepG-2; HepG-2, 12.5 ug/ml, read-out: Toxicity %) was 93.3%, the viability at 25 µg/mL (HepG-2; HepG-2, 25 ug/ml) was 5.9% and the cytotoxicity at 25 µg/mL (HepG-2; HepG-2, 25 ug/ml, read-out: Toxicity %) was 94.1%. For the same compound, the IC50 (HepG-2; MTT, HepG-2, read-out: Cytotoxicity against cancer cells IC50 HepG-2) was 0.1871 ± 0.0018 µM, the viability at 0.195 µmol (K-562; K-562, 0.195 umol) was 46.6% and the cytotoxicity at 0.195 µmol (K-562; K-562, 0.195 umol, read-out: Toxicity %) was 53.4%. For the same compound, the viability at 0.391 µmol (K-562; K-562, 0.391 umol) was 29.3%, the cytotoxicity at 0.391 µmol (K-562; K-562, 0.391 umol, read-out: Toxicity %) was 70.7% and the viability at 0.781 µmol (K-562; K-562, 0.781 umol) was 22%. For the same compound, the cytotoxicity at 0.781 µmol (K-562; K-562, 0.781 umol, read-out: Toxicity %) was 78%, the viability at 1.563 µmol (K-562; K-562, 1.563 umol) was 12.7% and the cytotoxicity at 1.563 µmol (K-562; K-562, 1.563 umol, read-out: Toxicity %) was 87.3%. The viability at 3.125 µmol (K-562; K-562, 3.125 umol) was 8.29%, the cytotoxicity at 3.125 µmol (K-562; K-562, 3.125 umol, read-out: Toxicity %) was 91.7% and the viability at 6.25 µmol (K-562; K-562, 6.25 umol) was 7.18%. It also gave a cytotoxicity at 6.25 µmol (K-562; K-562, 6.25 umol, read-out: Toxicity %) of 92.8%, a viability at 12.5 µmol (K-562; K-562, 12.5 umol) of 6.03% and a cytotoxicity at 12.5 µmol (K-562; K-562, 12.5 umol, read-out: Toxicity %) of 94%. For the same compound, the viability at 25 µmol (K-562; K-562, 25 umol) was 5.54%, the cytotoxicity at 25 µmol (K-562; K-562, 25 umol, read-out: Toxicity %) was 94.5% and the IC50 (K-562; MTT, K-562, read-out: Cytotoxicity against cancer cells IC50 K-562) was 0.1884 ± 0.0017 µM. The “% Sub-G1” value (HepG-2 cells; HepG-2, cytotoxic concentration, 24 h, control 68.12) was 96.3% and 96.13%, the “% S” value (HepG-2 cells; HepG-2, control 2.23) was 0.52% and the “% G2/M” value (HepG-2 cells; HepG-2, control 6.52) was 0.16%. The “% G1” value (HepG-2 cells; HepG-2, control 23.14) was 3.19%, the “Caspase-3 ± SE” value (caspase-3) was 1.52 ± 0.017 ng/mL and the “Caspase-3 ± SE” value (caspase-3; listed as R2) was 1.52 ng/mL. The “caspase-3 expression level, fold increase” value (caspase-3; HepG-2, vs control cells) was 3.30 fold, the “Caspase-9 ± SE” value (caspase-9) was 74.01 ± 3.92 ng/L and the “Caspase-9 ± SE” value (caspase-9; listed as R2) was 74.01 ng/L. For the same compound, the “caspase-9 expression level, fold increase” value (caspase-9; HepG-2, vs control cells) was 6.72 fold, the “TNF-alpha ±SE” value (TNF-alpha; HepG-2, at IC50 concentrations) was 14.37 ± 0.45 ng/L and the “TNF-alpha ±SE” value (TNF-alpha; raw data, HepG2) was 23.6 ng/L. The “IL-6R ± SE” value (IL-6R; HepG-2, at IC50 concentrations, control 44.10) was 19.54 ± 1.62 ng/L, the IL-6R protein level (IL-6R; HepG-2, control 44.10%) was 19.54 ng/L and the “IL-6 ±SE” value (IL-6R; raw data, HepG2, control 44.10) was 26.0 ng/L. For the same compound, the “fold increase in BAX expression level” value (BAX; HepG-2, vs control) was 3.8 fold, the BAX expression level (BAX; HepG-2, control 0.44) was 1.67 fold change and the “Gene expression (fold change) BAX” value (BAX; HepG-2, control 0.4448) was 1.6792 ± 0.74 fold change. The “fold reduction in Bcl-2 expression level” value (Bcl-2; HepG-2, vs control) was 3.75 fold, the “Gene expression (fold change) Bcl-2” value (Bcl-2; HepG-2, control 3.4983) was 0.93 fold change and 0.9352 ± 0.09 fold change and the “Gene expression (fold change) BAX/Bcl-2 ratio” value (BAX/Bcl-2) was 1.77 and 1.7777 ± 0.11. It also gave an Activity % (EGFR; HepG2) of 16.790%, an Inhibition % (EGFR; HepG2) of 83.210% and an Activity % (EGFR; K-562) of 33.902%. The Inhibition % (EGFR; K-562) was 66.098%, the Activity % (EGFR; MCF7) was 20.242% and the Inhibition % (EGFR; MCF7) was 79.758%. The Activity % (VEGFR-2; HepG2) was 25.136%, the Inhibition % (VEGFR-2; HepG2) was 74.864% and the Activity % (VEGFR-2; K-562) was 37.495%. It also gave an Inhibition % (VEGFR-2; K-562) of 62.505%, an Activity % (VEGFR-2; MCF7) of 32.377% and an Inhibition % (VEGFR-2; MCF7) of 67.623%.
